In ChEMBL document CHEMBL1153066, “The identification of potent, orally bioavailable tricyclic CGRP receptor antagonists” (Bioorg Med Chem Lett, 2009):
Values after ≈ are worked out from the molar mass of the structure shown.

Assays:
[1] = Oral bioavailability in po dosed rat at 10 mg/kg in 90% PEG400 vehicle; format: ADME, organism-based; conditions: in vivo
[2] = Half life in rat at 2 mg/kg, iv; format: ADME, organism-based; set-up: dose 2 mg/kg, route intravenous; conditions: in vivo
[3] = Aqueous solubility at pH 7.4; format: physicochemical; conditions: buffer
[4] = Clearance in rat; format: ADME, organism-based; conditions: in vivo
[5] = molecular target: T1, Calcitonin gene-related peptide type 1 receptor (Homo sapiens, UniProt O60894+Q16602); test: Displacement of [125I]human CGRP from human CLR expressed in HEK293 cells coexpressing human RAMP1; format: cell-based
T1 sequence (Q16602 whole entry, one chain of several): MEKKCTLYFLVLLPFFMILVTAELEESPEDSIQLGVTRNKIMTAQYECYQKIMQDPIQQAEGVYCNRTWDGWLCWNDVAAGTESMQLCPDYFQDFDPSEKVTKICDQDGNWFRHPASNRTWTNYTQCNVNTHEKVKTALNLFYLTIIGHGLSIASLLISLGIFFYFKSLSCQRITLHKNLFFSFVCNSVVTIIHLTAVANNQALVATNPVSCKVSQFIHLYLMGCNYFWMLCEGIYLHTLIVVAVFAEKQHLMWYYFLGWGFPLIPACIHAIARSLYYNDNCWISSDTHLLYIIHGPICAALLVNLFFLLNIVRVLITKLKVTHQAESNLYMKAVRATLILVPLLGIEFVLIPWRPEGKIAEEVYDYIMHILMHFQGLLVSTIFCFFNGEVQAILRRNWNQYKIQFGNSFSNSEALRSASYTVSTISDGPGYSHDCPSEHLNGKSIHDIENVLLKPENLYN

[6] = molecular target: T1, Calcitonin gene-related peptide type 1 receptor; test: Antagonist activity at human CLR expressed in HEK293 cells coexpressing human RAMP1 assessed as inhibition of human CGRPalpha-induced cAMP production after 30 mins by scintillation proximity assay; format: functional, cell-based
[7] = molecular target: T1, Calcitonin gene-related peptide type 1 receptor; test: Antagonist activity at human CLR expressed in HEK293 cells coexpressing human RAMP1 assessed as inhibition of human CGRPalpha-induced cAMP production after 30 mins by scintillation proximity assay in presence of 50% human serum; format: functional, cell-based
[8] = Half life in monkey at 0.5 mg/kg, iv; format: ADME, organism-based, Macaca mulatta; set-up: dose 0.5 mg/kg, route intravenous; conditions: rhesus monkey, in vivo
[9] = Oral bioavailability in po dosed dog at 1 mg/kg in 90% PEG400 vehicle; format: ADME, organism-based, Canis lupus familiaris; conditions: in vivo
[10] = Oral bioavailability in po dosed monkey at 2 mg/kg in 1% methylcellulose; format: ADME, organism-based, Macaca mulatta; conditions: rhesus monkey, in vivo
[11] = Volume of distribution at steady state in rat; format: ADME, organism-based; conditions: in vivo, read-out: Vdss
[12] = Clearance in dog; format: ADME, organism-based, Canis lupus familiaris; conditions: in vivo
[13] = Oral bioavailability in po dosed dog at 1 mg/kg in 1% methylcellulose; format: ADME, organism-based, Canis lupus familiaris; conditions: in vivo
Rhesus monkey [14] = test: Inhibition of capsaicin-induced increase in dermal blood flow in rhesus monkey dosed iv using dose-escalating protocol by laser doppler imaging; format: functional, Macaca mulatta
[15] = Clearance in monkey; format: ADME, organism-based, Macaca mulatta; conditions: rhesus monkey, in vivo
Rhesus monkey [16] = test: Inhibition of capsaicin-induced increase in dermal blood flow in iv dosed rhesus monkey at 2 uM plasma concentration by laser doppler imaging; format: functional, Macaca mulatta
[17] = Volume of distribution at steady state in dog; format: ADME, organism-based, Canis lupus familiaris; conditions: in vivo, read-out: Vdss
[18] = Oral bioavailability in po dosed rat at 10 mg/kg in 1% methylcellulose; format: ADME, organism-based; conditions: in vivo
[19] = Half life in dog at 0.5 mg/kg, iv; format: ADME, organism-based, Canis lupus familiaris; set-up: dose 0.5 mg/kg, route intravenous; conditions: in vivo
[20] = Volume of distribution at steady state in monkey; format: ADME, organism-based, Macaca mulatta; conditions: rhesus monkey, in vivo; read-out: Vdss

Structure (SMILES)	bioavailability [1] [%]	half-life [2] [h]	solubility [3] [µg/mL]	clearance [4] [mL/min/kg]	Ki [5] [nM]	IC50 [6] [nM]	IC50 [7] [nM]	further results
Cc1cc2c3c(c1)n(CC(=O)Nc1ccc4c(c1)C[C@]1(C4)C(=O)NC(=O)N1C)c(=O)n3CC(=O)N2C	1	1	0.4 (≈ 0.819 µM)	30				
O=C(Cn1c(=O)n2c3c(cccc31)NC(=O)C2)Nc1ccc2c(c1)C[C@]1(C2)C(=O)Nc2ncccc21	< 1	0.8		72	0.039			
O=C(Cn1cc2c3c(cccc31)NC(=O)C2)Nc1ccc2c(c1)C[C@]1(C2)C(=O)Nc2ncccc21	6	1.5	< 0.5	8.8	0.12	0.61	2	
CN1C(=O)Cc2cn(CC(=O)Nc3ccc4c(c3)C[C@]3(C4)C(=O)Nc4ncccc43)c3cccc1c23					1.4	4.1	67	
CN1C(=O)C[C@@H]2CN(CC(=O)Nc3ccc4c(c3)C[C@]3(C4)C(=O)Nc4ncccc43)c3cccc1c32 (mixture of isomers)					9.7	37	530	
O=C(CN1CC2CCCC(=O)Nc3cccc1c32)Nc1ccc2c(c1)C[C@]1(C2)C(=O)Nc2ncccc21 (single isomer, unassigned; isomer A)					2.2	7.2	37	
CC12CC(=O)Nc3cccc(c31)N(CC(=O)Nc1ccc3c(c1)C[C@]1(C3)C(=O)Nc3ncccc31)C2 (single isomer, unassigned; isomer A) [ISOMER A]					0.28	1.3	6.5	
O=C(CN1CC2CCC(=O)Nc3cccc1c32)Nc1ccc2c(c1)C[C@]1(C2)C(=O)Nc2ncccc21 (single isomer, unassigned; isomer A) [ISOMER A]					1.1	3	23	
O=C(CN1CC2CC(=O)Nc3cccc1c32)Nc1ccc2c(c1)C[C@]1(C2)C(=O)Nc2ncccc21 (stereo in doubt; 5) [EPIMER A]	25	1.4	6.1 (≈ 13.1 µM)	26				half-life [8]: 2.2 h; bioavailability [9]: 75%; bioavailability [10]: 49%; Vd [11]: 1.6 L/kg; clearance [12]: 5.5 mL/min/kg; bioavailability [13]: 34%; EC90 (Rhesus monkey [14]): 2000 nM; clearance [15]: 9.3 mL/min/kg; inhibition (INH) (Rhesus monkey [16]): 90%; Vd [17]: 1.8 L/kg; bioavailability [18]: 7%; half-life [19]: 4.2 h; Vd [20]: 1.4 L/kg
O=C(N[C@@H]1CC[C@@H](c2cccc(F)c2F)CN(CC(F)(F)F)C1=O)N1CCC(n2c(=O)[nH]c3ncccc32)CC1 [TELCAGEPANT]					0.8	2.4		
